AC50 data for three molecules are collected here from PubChem BioAssay AID720611 (Broad Institute, 2013).

The test has as its system SNB-19 viability, CellTiter-Glo ATP luminescence, 8-48 h. Description: SNB-19 glioblastoma cell viability over time, late-stage follow-up, mechanism study for HRAS target identification, CellTiter-Glo ATP luminescence, 8-48 h, dry powder (AID 720611). On the technique in general: In ATP-based viability assays light output follows the ATP content of the culture.

Consider `C#CCCCC(=O)NCCOCCOCCOc1ccc(N(C(=O)CCl)C(C(=O)NCCc2ccccc2)c2cccs2)cc1Cl` (centres undefined), for which the AC50 by setting is: (measured here: 8 h treatment) 5750 nM; (measured here: 24 h treatment) 4270 nM; (measured here: 48 h treatment) 3600 nM.
In the case of `COc1ccc(N(C(=O)CCl)C(C(=O)NCCc2ccccc2)c2cccs2)cc1Cl` (centres undefined), the AC50 (measured here: 8 h treatment) is 978 nM, the AC50 (measured here: 24 h treatment) amounted to 1300 nM and the AC50 (measured here: 48 h treatment) stood at 1250 nM.
The like results for `CC(C)(C)OC(=O)NCCOCCOCCOc1ccc(N(C(=O)CCl)C(C(=O)NCCc2ccccc2)c2cccs2)cc1Cl` (centres undefined) were, in that order, 1410 nM, 2500 nM and 1450 nM.

A word on the AC50: it is the concentration at which the activity in the assay is half-maximal. Low readings indicate activity at low concentration, high ones activity only at high concentration.
